Data taken from patent publication US11773085B2 (Foghorn Therapeutics Inc., priority 2018, dated 2023).

Experiments:
SYO1 cells [1] = experiment: Apoptosis assay, Annexin V-FITC Apoptosis Detection Kit; assay type: cell-based; details: SYO1, 200 nM or 1 μM, 8 days, compared to DMSO controls
Description: (§1) SYO1 cells were treated for 8 or 13 days with DMSO, a BRD9 degrader (Compound 1) at 200 nM or 1 μM, or an E3 ligase binder (lenalidomide) at 200 nM. Compounds were refreshed every 5 days. Cell cycle analysis was performed using the Click-iT™ Plus EdU Flow Cytometry Assay (Invitrogen). The apoptosis assay was performed using the Annexin V-FITC Apoptosis Detection Kit (Sigma A9210). Assays were performed according to the manufacturer's protocol.

SYO1 cells [2] = experiment: Cell cycle analysis, Click-iT Plus EdU Flow Cytometry Assay; assay type: cell-based; details: SYO1, 200 nM or 1 μM, 8 or 13 days, compared to DMSO and lenalidomide
Description: as §1

[3] = system: synovial sarcoma cell lines (SYO1, Yamato, HS-SY-II, and ASKA); experiment: Growth of synovial sarcoma cell lines (IncuCyte confluency, crystal violet, colony imaging); assay type: cell-based; details: 1 μM in crystal violet assay, FIGS. 5, 6, 7
Description: (§2) Cells were treated with DMSO or the BRD9 degrader, Compound 1, at indicated concentrations, and proliferation was monitored from day 7 to day 14 by measuring confluency over time using an IncuCyte live cell analysis system (FIG. 5). Growth medium and compounds were refreshed every 3-4 days.
(§3) Cells were seeded into 12-well plates and treated with DMSO, 1 μM BRD9 inhibitor, Compound 2 (also known as BI-7273, see Martin et al, J Med Chem. 59(10):4462-4475 (2016); see structure of compound 2 below), or 1 μM BRD9 degrader, Compound 1.
(§4) The number of cells was optimized for each cell line. Growth medium and compounds were refreshed every 3-5 days. SYO1, Yamato, A549, 293T and HS-SY-II cells were fixed and stained at day 11. ASKA cells were fixed and stained at day 23. Staining was done by incubation with crystal violet solution (0.5 g Crystal Violet, 27 ml 37% Formaldehyde, 100 mL 10×PBS, 10 mL Methanol, 863 dH20 to 1 L) for 30 min followed by 3× washes with water and drying the plates for at least 24 h at room temperature. Subsequently plates were scanned on an Odyssey CLx Imaging system (FIG. 6).
(§5) Cells were seeded into 96-well ultra low cluster plate (Costar, #7007) in 200 μL complete media and treated at day 2 with DMSO, Staurosporin, or BRD9 degarder, Compound 1, at indicated doses (FIG. 7). Media and compounds were changed every 5 d and cell colonies were imaged at day 14.

[4] = system: non-synovial control cancer cell lines (293T, A549, G401); experiment: Growth of non-synovial control cancer cell lines (crystal violet, colony imaging); assay type: cell-based; details: FIGS. 5, 6, 7
Description: as §2, §3, §4, §5

[5] = system: synovial sarcoma cell lines (SYO1, HS-SY-II, and ASKA); experiment: Growth of synovial sarcoma cell lines, crystal violet staining at day 14; assay type: cell-based; details: for inhibition of cell growth: SYO1, HS-SY-II, ASKA, treated daily, day 14, FIG. 8
Description: (§6) Cells were seeded into 6-well or 12-well plates and were treated daily with a BRD9 degrader (Compound 1), a bromo-domain BRD9 binder (Compound 2), E3 ligase binder (lenalidomide), DMSO, or staurosporin (positive control for cell killing), at indicated concentrations. The number of cells was optimized for each cell line. Growth media was refreshed every 5 days. By day 14, medium was removed, cells were washed with PBS, and stained using 500 μL of 0.005% (w/v) crystal violet solution in 25% (v/v) methanol for at least 1 hour at room temperature. Subsequently plates were scanned on an Odyssey CLx Imaging system.

[6] = system: non-synovial control cancer cell lines (RD, HCT116, and Calu6); experiment: Growth of non-synovial control cancer cell lines, crystal violet staining at day 14; assay type: cell-based; details: treated daily, FIG. 9
Description: as §6

BRD9 bromodomain = BRD9 bromodomain (Homo sapiens (Human), UniProt Q9H8M2); experiment: BRD9 bromodomain TR-FRET competition binding assay; details: 3 nM Flag-BRD9, 3.75 nM biotinylated ligand, 90 minutes at room temperature
Description: Cleaved His tag was removed by purification.
A mixture of biotinylated-ligand and SureLight™ Allophycocyanin-Streptavidin (APC-SA, PerkinElmer AD0201) in 50 mM HEPES (pH 7.4), 50 mM NaCl, 1 mM TCEP (pH 7), 0.01% (v/v) Tween-20, 0.01% (w/v) bovine serum albumin was added to a white 384-well PerkinElmer Proxiplate Plus plate. DMSO or 3-fold serially diluted compounds were then added to the Proxiplate followed by addition of Flag-BRD9. After a 10 minute incubation at room temperature, Eu-W1024 anti-FLAG (PerkinElmer, AD0273) was added.

[7] = biological target: Nanoluciferase-BRD9 fusion protein (3×FLAG-NLuc-BRD9) (Homo sapiens (Human), UniProt Q9H8M2); experiment: SYO1 BRD9 NanoLuc degradation assay; assay type: cell-based; details: SYO-1 cells expressing 3×FLAG-NLuc-BRD9, 6 hours, 1 μM top dose; read-out: SYO1 BRD9-NanoLuc degradation IC50
Description: A stable SYO-1 cell line expressing 3×FLAG-NLuc-BRD9 was generated. On day 0 cells were seeded in 30 μL media into each well of 384-well cell culture plates. The seeding density was 8000 cells/well. […] Subsequently plates were incubated for 6 hours in a standard tissue culture incubator and equilibrated at room temperature for 15 minutes. Nanoluciferase activity was measured by adding 15 μL of freshly prepared Nano-Glo Luciferase Assay Reagent (Promega N1130), shaking the plates for 10 minutes and reading the bioluminescence using an EnVision reader.
The Inhibition % was calculated using the following formula: % Inhibition=100×(LumHC−LumSample)/(LumHC−LumLC). DMSO treated cells are employed as High Control (HC) and 1 μM of a known BRD9 degrader standard treated cells are employed as Low Control (LC).

With `COc1cc(-c2cn(C)c(=O)c3cnccc23)cc(OC)c1CN(C)CC(=O)NCCOCCOCCNc1cccc2c1C(=O)N(C1CCC(=O)NC1=O)C2=O` (centres unmarked) [Compound 1] the “numbers of early- and late-apoptotic cells” value (SYO1 cells [1]) was “increased numbers of early- and late-apoptotic cells”, the “numbers of cells in the S-phase of the cell cycle” value (SYO1 cells [2]) was “reduced numbers of cells in the S-phase” and the “inhibition of cell growth” value [3] was “results in inhibition of the growth of the cells”. The “inhibition of cell growth” value [4] was “does not result in inhibition of the growth”, the “inhibition of cell growth” value [5] was “resulted in inhibition of the growth of the cells” and the “growth inhibition compared with the other agents tested” value ([5]; all synovial cell lines, versus Compound 2 and lenalidomide) was “most significant growth inhibition”. For the same molecule, the “inhibition of cell growth” value [6] was “did not result in inhibition of the growth”.

With `COc1cc(-c2cn(C)c(=O)c3cnccc23)cc(OC)c1CN(C)C` [Compound 2] the “inhibition of cell growth” value [3] was “results in inhibition of the growth of the cells”, the “inhibition of cell growth” value [4] was “does not result in inhibition of the growth” and the “inhibition of cell growth” value [5] was “resulted in inhibition of the growth of the cells”. The “inhibition of cell growth” value [6] was “did not result in inhibition of the growth”.

For `COc1cc(-c2cn(C)c(=O)c3cnccc23)cc(OCC(=O)NCCCCCCCCNc2cccc3c2C(=O)N(C2CCC(=O)NC2=O)C3=O)c1OC` (centres unmarked) [Compound D10, 2-(2,3-dimethoxy-5-(2-methyl-1-oxo-1,2-dihydro-2,7-naphthyridin-4-yl)phenoxy)-N-(8-((2-(2,6-dioxopiperidin-3-yl)-1,3-dioxoisoindolin-4-yl)amino)octyl)acetamide], the IC50 (BRD9 bromodomain) was 10 to 100 nM and the DC50 [7] was under 10 nM.

In the case of `COc1cc(-c2cn(C)c(=O)c3cnccc23)cc(OC)c1CN(C)C(=O)CCCOc1cccc2c1C(=O)N(C1CCC(=O)NC1=O)C2=O` (centres unmarked) [Compound D11, N-[[2,6-dimethoxy-4-(2-methyl-1-oxo-1,2-dihydro-2,7-naphthyridin-4-yl)phenyl]methyl]-4-[[2-(2,6-dioxopiperidin-3-yl)-1,3-dioxo-2,3-dihydro-1H-isoindol-4-yl]oxy]-N-methylbutanamide], the IC50 (BRD9 bromodomain) is reported as under 10 nM and the DC50 [7] is reported as under 10 nM.

With `COc1cc(-c2cn(C)c(=O)c3cnccc23)cc(OC)c1CN(C)C(=O)CCCCOc1cccc2c1C(=O)N(C1CCC(=O)NC1=O)C2=O` (centres unmarked) [Compound D12, N-[[2,6-dimethoxy-4-(2-methyl-1-oxo-1,2-dihydro-2,7-naphthyridin-4-yl)phenyl]methyl]-5-[[2-(2,6-dioxopiperidin-3-yl)-1,3-dioxo-2,3-dihydro-1H-isoindol-4-yl]oxy]-N-methylpentanamide] the IC50 (BRD9 bromodomain) was under 10 nM and the DC50 [7] was under 10 nM.

In the case of `COc1cc(-c2cn(C)c(=O)c3cnccc23)cc(OC)c1CN(C)CC(=O)N(C)CCOCCOCCNc1cccc2c1C(=O)N(C1CCC(=O)NC1=O)C2=O` (centres unmarked) [Compound D13, 2-((2,6-dimethoxy-4-(2-methyl-1-oxo-1,2-dihydro-2,7-naphthyridin-4-yl)benzyl)(methyl)amino)-N-(2-(2-(2-((2-(2,6-dioxopiperidin-3-yl)-1,3-dioxoisoindolin-4-yl)amino)ethoxy)ethoxy)ethyl)-N-methylacetamide], the IC50 (BRD9 bromodomain) is reported as 10 to 100 nM and the DC50 [7] is reported as 10 to 100 nM.

Molecule `COc1cc(-c2cn(C)c(=O)c3cnccc23)cc(OC)c1CN(C)C(=O)CCOc1cccc2c1C(=O)N(C1CCC(=O)NC1=O)C2=O` (centres unmarked) [Compound D14, N-[[2,6-dimethoxy-4-(2-methyl-1-oxo-1,2-dihydro-2,7-naphthyridin-4-yl)phenyl]methyl]-3-[[2-(2,6-dioxopiperidin-3-yl)-1,3-dioxo-2,3-dihydro-1H-isoindol-4-yl]oxy]-N-methylpropanamide] has an IC50 (BRD9 bromodomain) of under 10 nM and a DC50 [7] of over 1000 nM.

With `COc1cc(-c2cn(C)c(=O)c3cnccc23)cc(OC)c1CN(C)Cc1cccc2c1C(=O)N(C1CCC(=O)NC1=O)C2=O` (centres unmarked) [Compound D15, 4-(((2,6-dimethoxy-4-(2-methyl-1-oxo-1,2-dihydro-2,7-naphthyridin-4-yl)benzyl)(methyl)amino)methyl)-2-(2,6-dioxopiperidin-3-yl)isoindoline-1,3-dione formic acid] the IC50 (BRD9 bromodomain) was 10 to 100 nM and the DC50 [7] was over 1000 nM.

`COc1cc(-c2cn(C)c(=O)c3cnccc23)cc(OC)c1CN(C)CC(=O)N(C)CCOCCOCCNc1ccc2c(c1)C(=O)N(C1CCC(=O)NC1=O)C2=O` (centres unmarked) [Compound D16, 2-((2,6-dimethoxy-4-(2-methyl-1-oxo-1,2-dihydro-2,7-naphthyridin-4-yl)benzyl)(methyl)amino)-N-(2-(2-(2-((2-(2,6-dioxopiperidin-3-yl)-1,3-dioxoisoindolin-5-yl)amino)ethoxy)ethoxy)ethyl)-N-methylacetamide] showed an IC50 (BRD9 bromodomain) of 10 to 100 nM and a DC50 [7] of 10 to 100 nM.

For `COc1cc(-c2cn(C)c(=O)c3cnccc23)cc(OC)c1CN(C)CCCCCCCC(=O)N[C@H](C(=O)N1C[C@H](O)C[C@H]1C(=O)NCc1ccc(-c2scnc2C)cc1)C(C)(C)C` [Compound D19, (2S,4R)-1-[(2S)-2-[8-([[2,6-dimethoxy-4-(2-methyl-1-oxo-2,7-naphthyridin-4-yl)phenyl]methyl](methyl)amino)octanamido]-3,3-dimethylbutanoyl]-4-hydroxy-N-[[4-(4-methyl-1,3-thiazol-5-yl)phenyl]methyl]pyrrolidine-2-carboxamide], the IC50 (BRD9 bromodomain) was 10 to 100 nM and the DC50 [7] was over 1000 nM.

For `COc1cc(-c2cn(C)c(=O)c3cnccc23)cc(OC)c1CN(C)CCOCCOCC(=O)N[C@H](C(=O)N1C[C@H](O)C[C@H]1C(=O)NCc1ccc(-c2scnc2C)cc1)C(C)(C)C` [Compound D20], the IC50 (BRD9 bromodomain) was 10 to 100 nM and the DC50 [7] was over 1000 nM.
